Source: patent publication US7524849B2, “5-arylpyrimidines as anticancer agents” (Wyeth Holdings Corporation, priority 2003, dated 2009)
Like-named read-outs stand apart in the source and are kept apart here. Marks after values point to notes of the source that are not given here.

Key:
MAP-rich tubulin = experiment: Tubulin polymerization test with MAP-rich tubulin; type: biochemical, bovine; details: 0.3 μM compound, mean A340 at 20 min, fold enhancement over control
Method: Medium is RPMI-1640 with L-glutamine, supplemented with 10% heat-inactivated fetal calf serum, 100 units/mL penicillin, and 100 μg/mL streptomycin (Gibco, Grand Island, N.Y.). Microtubule-associated protein (MAP)-rich tubulin, containing about 70% tubulin and 30% MAPs (#ML113), and highly purified tubulin (>99% pure, #TL238), both from bovine brain, are obtained from Cytoskeleton, Inc., Denver, Colo. PEM buffer (80 mM piperazine-N,N′-bis[2-ethanesulfonic acid], pH 6.9, 1 mM ethylene glycol-bis(β-aminoethyl ether)-N,N,N′,N′-tetraacetic acid, 1 mM magnesium chloride) and guanosine 5′-triphosphate (GTP) are also obtained from Cytoskeleton. […] [^3H]vinblastine, specific activity 9.60 Ci/mmol and MicroSpin G-50 columns are obtained from Amersham Biosciences (Piscataway, N.J.). […] Other reagents are obtained from Sigma (St. Louis, Mo.).
MAP-rich tubulin is dissolved in ice-cold PEM buffer containing 1 mM GTP (GPEM buffer) at a concentration of 1.3 mg/mL. The solution is centrifuged at top speed in an Eppendorf model 5415C microcentrifuge (Brinkmann Instruments, Westbury, N.Y.) for 10 min at 4° immediately before use. The tubulin solution is added to wells of a ½-area 96-well plate (Costar No. 3696, Corning, Inc., Corning, N.Y.) already containing the compounds of interest. Each compound is tested in duplicate at a final concentration of 0.3 μM in a volume of 110 μL per well. The final DMSO concentration in all wells is 0.3%. Control reactions, which receive compound solvent only, are done in quadruplicate. The plate is put in a SpectraMax Plus plate reader (Molecular Devices Corp. Sunnyvale, Calif.) thermostated at 24° and the absorbance of each well at 340 nm, a measure of the appearance of turbidity due to tubulin polymer formation, is determined every minute for 60 minutes. The absorbance at time 0 for each well is subtracted from each of the subsequent absorbance readings for that well, and then the duplicates are averaged.

KB-V1 cells = experiment: MTS cytotoxicity test with KB-V1 cells (very high P-glycoprotein); type: cell-based, human; details: for IC50: KB VI cells, mean of 2 experiments; for Ratio VI/KB: IC50 on KB VI cells/IC50 on KB cells
Text: (§1) Human cancer cell lines, unless otherwise noted, are obtained from the American Type Culture Collection (Rockville, Md.). The following drug-sensitive parental cell lines, and their derived drug-resistant counterparts, are obtained from the originators as listed: (a) S1 (parental line from a subclone of human colon carcinoma line LS174T) and derived S1-M1-3.2 (herein called S1-M1) which expresses the MXR drug transporter protein, are provided by Dr. L. Greenberger, Wyeth Research (Rabindran, S. K., He, H., Singh, M., Brown, E., Collins, K. I., Annable, T., and Greenberger, L. M. Reversal of a novel multidrug resistance mechanism in human colon carcinoma cells by fumitremorgin C. Cancer Res., 58: 5850-5858, 1998); (b) parental HL-60 human promyelocytic leukemia line and derived HL-60/ADR, which expresses the MRP1 drug transporter protein, are provided by Dr. M. Center, University of Kansas (McGrath, T., and Center, M. S. Adriamycin resistance in HL60 cells in the absence of detectable P-glycoprotein. Biochem. Biophys. […] J. Biol. Chem., 261: 7762-7770, 1986) via Dr. L. Greenberger, Wyeth Research.
(§2) The assay, which is sold in kit form by Promega (Madison, Wis.; CellTiter 96 AQueous Non-Radioactive Cell Proliferation Assay), is based on the conversion by viable cells, but not by dead cells, of the tetrazolium salt, MTS (3-(4,5-dimethylthiazol-2-yl)-5-(3-carboxymethoxyphenyl)-2-(4-sulphophenyl)-2H-tetrazolium, inner salt), into a water-soluble colored formazan which is detected by spectrophotometry. Compounds are tested at nine concentrations, in order to determine IC50 values. For the test procedure, cells are harvested by trypsinization, washed, counted and distributed to wells of 96-well flat-bottom microtiter plates at 1000 cells per well in 200 μL of medium. In addition, one row of wells on a separate plate receives cells as above (“time 0” plate). All plates are incubated at 37° in humidified 5% CO2 in air for about 24 hr.
(§3) On day 2, compounds for test are diluted and added to wells. Compounds are dissolved in DMSO at 10 mg/mL. For each compound, nine serial 2-fold dilutions are prepared in DMSO. Ten μL of each dilution in DMSO are transferred to 100 μL of medium, mixed well, and then 5 μL of this dilution are transferred in quadruplicate to wells containing cells. […] Plates are returned to the incubator for three days. At the time of drug addition to the experimental plates, the MTS assay is run on the “time 0” plate. This produces the “time 0 MTS value” which is related to the number of viable cells per well at the time of drug addition.
(§4) After three days of culture with test compounds (day 5 overall), the MTS assay is done on all wells of the experimental plates. The absorbance values of the quadruplicate sample wells are averaged and divided by the average of the “time 0” values. […] The nine values for each compound are plotted against concentration, and the concentration that produces a relative color yield half way between the maximum and minimum is taken as the IC50 value.

S1 cells = experiment: MTS cytotoxicity test with S1 cells; type: cell-based, human; details: mean of 2 experiments
Text: as §1, §2, §3, §4
(§5) S1-M1 cells overexpress the MXR transporter which mediates resistance to some chemotherapeutics (Gottesman, M. M., Fojo, T., and Bates, S. E. Miltidrug resistance in cancer: role of ATP-dependent transporters. Nature Rev. Cancer, 2: 48-58, 2002). The IC50 values of representative examples of this invention, as well as reference compounds, on S1-M1 are compared to values on the sensitive parental S1 line.

KB-8-5 cells = experiment: MTS cytotoxicity test with KB-8-5 cells (moderate P-glycoprotein); type: cell-based, human; details: for IC50: KB 8.5 cells, mean of 2 experiments; for Ratio 8.5/KB: IC50 on KB 8.5 cells/IC50 on KB cells
Text: as §1, §2, §3, §4

[1] = test system: H157 Human Non-Small Cell Lung Carcinoma; details: for growth of xenografts: H157 NSCLC;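 on all read-outs here: subcutaneous flank tumors in female athymic nu/nu mice, staged near 100 mm^3 on day 0, tumor volume from caliper measurements, vehicle-dosed controls on the same schedule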
Method: The ability of compounds of this invention to inhibit tumor growth in animals is studied in the athymic mouse xenograft standard pharmacological test. Female nu/nu mice in an outbred albino background are obtained from Charles River Laboratories (Wilmington, Mass.). Animals are injected subcutaneously on the flank with the desired tumor cell suspension. Several days later, mice with tumors of approximately 100 mm^3 are selected from those injected (staged) and randomly distributed into groups of 5-10. The day of staging is called day 0. Compounds of the invention, formulated in saline, are administered to animals by intravenous injection or oral gavage on various schedules starting on day 0 or 1, as noted in the tables. The control group in each experiment is dosed with vehicle on the same schedule. Tumor size is measured every 3-7 days with calipers in two orthogonal dimensions, and tumor volume is calculated from the formula volume=[(length×width^2)/2].
Tumor/Control (T/C) is obtained by dividing the mean tumor volume of the treated group by the mean tumor volume of the control group on each measurement day. […] A p value≦0.05, determined by one-side Student's t-test, is required for statistical significance. A treatment dose is defined as toxic if more than 30% of the animals die from a compound-related toxicity.

S1-M1 cells = experiment: MTS cytotoxicity test with S1-M1 cells (MXR); type: cell-based, human; details: for IC50: S1-M1 cells, mean of 2 experiments; for Ratio: IC50 on S1-M1 cells/IC50 on S1 cells
Text: as §1, §2, §3, §4, §5

[2] = 1.5 mg/kg IV, schedule days 0, 7, H157
[3] = 3 mg/kg IV, schedule days 0, 7, H157
[4] = 1 mg/kg PO, schedule days 1, 7, H157
[5] = 5 mg/kg PO, schedule days 1, 7, H157
[6] = 5 mg/kg IV, schedule day 0, H157 (Table 11)
[7] = 5 mg/kg PO, schedule day 0, H157

CNCCCOc1cc(F)c(-c2c(Cl)nc(-n3cccn3)nc2N[C@@H](C)C(F)(F)F)c(F)c1.Cl [Example 32a, 6-Chloro-5-{2,6-difluoro-4-[3-(methylamino)propoxy]phenyl}-2-(1H-pyrazol-1-yl)-N-[(1S)-2,2,2-trifluoro-1-methylethyl)pyrimidin-4-amine Hydrogen Chloride]
A340 Compound / A340 Control (MAP-rich tubulin): 2.3 | IC50 (KB-V1 cells; Homo sapiens, KB-V1): 569 nM | Ratio VI/KB (KB-V1 cells): 242 | IC50 (S1 cells; Homo sapiens): 9.9 nM | IC50 (KB-8-5 cells; Homo sapiens): 32 nM | Ratio 8.5/KB (KB-8-5 cells): 14 | T/C on day 0 [1, 2]: 0.95 | T/C on day 4 [1, 2]: 0.89 | T/C on day 7 [1, 2]: 0.63* | T/C on day 13 [1, 2]: 0.48* | T/C on day 0 [1, 3]: 0.95 | T/C on day 4 [1, 3]: 0.72 | T/C on day 7 [1, 3]: 0.46** | T/C on day 13 [1, 3]: 0.10** | growth of xenografts ([1]; intravenously on days 0 and 7 at 3 or 1.5 mg/kg/dose): inhibits the growth | IC50 (S1-M1 cells; Homo sapiens): 8.7 nM | Ratio (S1-M1 cells): 0.9

CNCCCOc1cc(F)c(-c2c(Cl)nc(-c3cnccn3)nc2N[C@@H](C)C(F)(F)F)c(F)c1.Cl [Example 24a, 6-Chloro-5-{2,6-difluoro-4-[3-(methylamino)propoxy]phenyl}-2-pyrazin-2-yl-N-[(1S)-2,2,2-trifluoro-1-methylethyl]pyrimidin-4-amine hygrogen chloride]
A340 Compound / A340 Control (MAP-rich tubulin): 2.3 | Ratio VI/KB (KB-V1 cells): 58 | IC50 (KB-V1 cells): 405 nM | IC50 (S1 cells): 20 nM | Ratio 8.5/KB (KB-8-5 cells): 3.5 | IC50 (KB-8-5 cells): 24 nM | T/C on day 0 [1, 4]: 0.96 | T/C on day 4 [1, 4]: 0.73* | T/C on day 7 [1, 4]: 0.70 | T/C on day 10 [1, 4]: 0.58 | T/C on day 13 [1, 4]: 0.50* | T/C on day 0 [1, 5]: 0.98 | T/C on day 4 [1, 5]: 0.64** | T/C on day 7 [1, 5]: 0.51** | T/C on day 10 [1, 5]: 0.16** | T/C on day 13 [1, 5]: 0.12** | growth of xenografts ([1]; orally on days 1 and 7 with 5 or 1 mg/kg/dose): inhibits the growth | Ratio (S1-M1 cells): 2.7 | IC50 (S1-M1 cells): 53 nM

CC[C@]1(O)C[C@H]2CN(CCc3c([nH]c4ccccc34)[C@@](C(=O)OC)(c3cc4c(cc3OC)N(C=O)[C@H]3[C@@](O)(C(=O)OC)[C@H](OC(C)=O)[C@]5(CC)C=CCN6CC[C@]43[C@@H]65)C2)C1 [Vincristine, reference compound]
A340 Compound / A340 Control (MAP-rich tubulin): 0.2 | IC50 (KB-V1 cells; Homo sapiens, KB-V1): 2040 nM | Ratio VI/KB (KB-V1 cells): 925 | IC50 (S1 cells; Homo sapiens): 14 nM | IC50 (KB-8-5 cells; Homo sapiens): 58 nM | Ratio 8.5/KB (KB-8-5 cells): 26 | IC50 (S1-M1 cells; Homo sapiens): 7.9 nM | Ratio (S1-M1 cells): 0.6

CNCCCOc1cc(F)c(-c2c(Cl)nc(-c3ccccn3)nc2N[C@@H](C)C(F)(F)F)c(F)c1.Cl [Example 29a, 6-Chloro-5-{2,6-difluoro-4-[3-(methylamino)propoxy]phenyl}-2-pyridin-2-yl-N-[(S)-2,2,2-trifluoro-1-methylethyl]pyrimidin-4-amine hydrogen chloride]
A340 Compound / A340 Control (MAP-rich tubulin): 2.4 | IC50 (KB-V1 cells; Homo sapiens, KB-V1): 423 nM | Ratio VI/KB (KB-V1 cells): 69 | IC50 (S1 cells; Homo sapiens): 7.9 nM | IC50 (KB-8-5 cells; Homo sapiens): 21 nM | Ratio 8.5/KB (KB-8-5 cells): 3.4 | T/C on day 0 [1, 6]: 1.03 | T/C on day 2 [1, 6]: 0.34** | T/C on day 7 [1, 6]: Toxic | T/C on day 0 [1, 7]: 1.02 | T/C on day 2 [1, 7]: 0.43** | T/C on day 7 [1, 7]: 0.37** | T/C on day 9 [1, 7]: 0.33** | T/C on day 14 [1, 7]: 0.25** | growth of xenografts ([1]; orally on day 0 with 5 mg/kg): inhibits the growth | IC50 (S1-M1 cells; Homo sapiens): 21 nM | Ratio (S1-M1 cells): 2.7

CC(=O)O[C@H]1C(=O)[C@@]2(C)[C@H]([C@H](OC(=O)c3ccccc3)[C@]3(O)C[C@H](OC(=O)[C@H](O)[C@@H](NC(=O)c4ccccc4)c4ccccc4)C(C)=C1C3(C)C)[C@]1(OC(C)=O)CO[C@@H]1C[C@@H]2O [Paclitaxel, reference compound]
A340 Compound / A340 Control (MAP-rich tubulin): 2.4 | IC50 (KB-V1 cells; Homo sapiens, KB-V1): 2010 nM | IC50 (S1 cells; Homo sapiens): 4.2 nM | IC50 (S1-M1 cells; Homo sapiens): 2.7 nM
